Measured values as given in patent publication US7888382B2, “Combined pharmaceutical preparation for treatment of type 2 diabetes” (Kissei Pharmaceutical Co., Ltd., priority 2005, dated 2011).
Read-outs that look alike come from different tables or passages of the source.

Tests used:
[1] = test system: patients with type 2 diabetes; conditions: human, in vivo
Procedure: Clinical trials as follows were performed with double-blind, parallel group trial on patients with type 2 diabetes.
Type 2 diabetic patients of at least 20 years old whose blood glucose could not be sufficiently controlled by a dietary therapy and who requires introduction of medication and has HbA1C of at least 6.5% and less than 8.5%.
(1) 5 mg tablet of mitiglinide calcium hydrate (hereafter also referred to as “KAD-1229”)
(2) placebo tablet of KAD-1229 5 mg tablet
(4) placebo tablet of KAD-1229 10 mg tablet
(5) 0.2 mg tablet of voglibose
(6) placebo tablet of voglibose 0.2 mg tablet
(Method of Administration)
A 0.2 mg tablet of voglibose was orally administered 3 times a day immediately before every meal (within 5 minutes before eating) for 16 weeks (an observation period: a non-blind trial period). Thereafter, investigational drugs distributed as Table 1 were orally administered 3 times a day immediately before every meal (within 5 minutes before eating) for 12 weeks (a treatment period: a double-blind trial period). Administration of the investigational drugs after meal was not allowed, and administration was not performed when the meal was not taken.
The following items were assessed during and after the period of administration.

Male Wistar rats = assay: Oral sucrose tolerance test; assay type: in vivo, rat; conditions: in combination with voglibose, sucrose 2.5 g/kg, compared to nateglinide or repaglinide, FIG. 11
Procedure: Male Wistar rats purchased from Japan SLC, Inc. were used in this test.
An oral sucrose tolerance test was performed using 7-week-old rats.
The rats were fasted for at least 16 hours and received oral administration of 2.5 mL/kg of a prepared tested substance or a vehicle (0.5% CMC solution), followed by oral administration of 5 mL/kg of 0.5 g/mL sucrose solution (2.5 g/kg). Blood was drawn from a rat tail vein immediately before administration and 0.25 and 0.5 hours after loading. A plasma glucose concentration was measured using a Glucose CII-test Wako (Wako Pure Chemical Industries, Ltd.).
A dose of the tested substance was converted from a usual dose of each drug for a type 2 diabetic patient (mitiglinide: 10 mg, nateglinide: 120 mg, repaglinide: 1 mg). As for nateglinide, a converted value of 12 mg was changed to 20 mg to be set as a dose, considering an effect thereof.
An area under the plasma glucose concentration-time curve from a time before sucrose loading to 0.5 hours after sucrose loading (AUC0-0.5 hr) was set as an assessment item. Blood glucose AUC0-0.5 hr was calculated from plasma glucose concentrations with a trapezoidal rule using the area under the plasma glucose concentration-time curve.
Excel (Microsoft Corp.) and GraphPad Prism 3.0 (GraphPad Software Inc.) were used to aggregate and calculate data, to make diagrams and the like. […]

OCC(CO)N[C@H]1C[C@](O)(CO)[C@@H](O)[C@H](O)[C@H]1O [Comparative Example 1, voglibose]
Incidence rate of gastrointestinal disorders ([1]; 12 weeks): 10.1%
Incidence rate of hypoglycemic symptoms ([1]; 12 weeks): 1.1%

O.O.O=C([O-])[C@H](CC(=O)N1C[C@H]2CCCC[C@H]2C1)Cc1ccccc1.O=C([O-])[C@H](CC(=O)N1C[C@H]2CCCC[C@H]2C1)Cc1ccccc1.[Ca+2] [Comparative Example 2, mitiglinide calcium hydrate]
Incidence rate of gastrointestinal disorders [1]: 6.8%
Incidence rate of hypoglycemic symptoms [1]: 3.9%
blood glucose decreasing effect (blood glucose AUC0-0.5 hr) (Male Wistar rats): strong blood glucose decreasing effect within a very short time
